In this test the target is T1, VEGFR-2 (Homo sapiens, UniProt P35968).
T1 construct: gene KDR
In words: ELISA-based tyrosine kinase assay with VEGFR-2 (Upstate), poly-Glu-Tyr substrate, Mg2+ and ATP. In kind it is biochemical.

T1 sequence (P35968 20-1356): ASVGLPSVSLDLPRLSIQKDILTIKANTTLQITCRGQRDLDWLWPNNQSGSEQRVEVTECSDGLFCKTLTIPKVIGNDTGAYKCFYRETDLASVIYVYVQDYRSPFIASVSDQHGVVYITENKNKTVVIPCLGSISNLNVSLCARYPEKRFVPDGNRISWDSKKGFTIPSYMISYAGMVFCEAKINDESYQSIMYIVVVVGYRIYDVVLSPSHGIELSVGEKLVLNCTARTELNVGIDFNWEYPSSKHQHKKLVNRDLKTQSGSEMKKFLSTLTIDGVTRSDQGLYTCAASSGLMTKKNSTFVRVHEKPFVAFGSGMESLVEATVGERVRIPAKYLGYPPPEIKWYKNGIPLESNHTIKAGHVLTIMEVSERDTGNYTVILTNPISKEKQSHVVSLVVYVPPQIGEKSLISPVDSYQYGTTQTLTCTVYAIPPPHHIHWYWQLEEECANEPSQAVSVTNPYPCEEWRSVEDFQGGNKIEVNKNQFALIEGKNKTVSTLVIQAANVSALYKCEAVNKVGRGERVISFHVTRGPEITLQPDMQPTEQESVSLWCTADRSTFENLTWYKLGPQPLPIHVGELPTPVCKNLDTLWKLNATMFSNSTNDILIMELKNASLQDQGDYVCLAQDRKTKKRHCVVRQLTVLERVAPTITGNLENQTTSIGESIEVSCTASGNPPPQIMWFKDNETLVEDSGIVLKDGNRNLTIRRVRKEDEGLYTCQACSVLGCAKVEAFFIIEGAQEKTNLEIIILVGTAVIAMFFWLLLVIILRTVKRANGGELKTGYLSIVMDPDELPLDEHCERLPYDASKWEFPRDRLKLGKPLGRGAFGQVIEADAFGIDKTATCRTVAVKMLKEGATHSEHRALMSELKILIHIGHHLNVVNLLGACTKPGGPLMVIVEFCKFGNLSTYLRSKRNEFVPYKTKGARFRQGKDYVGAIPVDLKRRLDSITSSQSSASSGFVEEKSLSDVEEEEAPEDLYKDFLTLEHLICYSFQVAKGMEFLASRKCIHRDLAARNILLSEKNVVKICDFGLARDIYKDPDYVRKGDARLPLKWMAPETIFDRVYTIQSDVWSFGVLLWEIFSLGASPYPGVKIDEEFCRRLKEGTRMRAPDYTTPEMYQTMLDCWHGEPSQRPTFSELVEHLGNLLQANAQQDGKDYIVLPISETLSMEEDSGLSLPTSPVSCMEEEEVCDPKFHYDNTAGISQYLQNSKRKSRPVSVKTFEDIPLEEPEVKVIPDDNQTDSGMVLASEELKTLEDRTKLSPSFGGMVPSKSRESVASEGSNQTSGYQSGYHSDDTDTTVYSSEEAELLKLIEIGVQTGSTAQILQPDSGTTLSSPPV

The IC50 is the concentration that gives 50% inhibition. In the case of `O=c1oc2c(O)c(O)cc3c(=O)oc4c(O)c(O)cc1c4c23` [ellagic acid, 4,4′,5,5′6, 6′-hexahydroxydiphenic acid 2,6,2′6′-dilactone], the IC50 is about 25.8 nM.

(Values after publication PMC3409373, “Ellagic acid, a phenolic compound, exerts anti-angiogenesis effects via VEGFR-2 signaling pathway in breast cancer” (Breast Cancer Research and Treatment, 2012).)
